Test results as given in patent US20160175318A1, “COMPOSITIONS COMPRISING ANTIBACTERIAL AGENT AND TAZOBACTAM” (WOCKHARDT LIMITED, priority 2013, published 2016).
Read-outs that look alike come from different tables or passages of the source.

How the values were obtained:
Format in all cases: cell-based
E. coli S-112 = assay: Quantitative drug diffusion assay (disc, zone of inhibition, CLSI); parameters: key to Interpretation of zone as per CLSI recommendations: R: Resistant; I: Intermediate; S: Sensitive (Interpretation as per CLSI recommendations, 2010)
Excerpt: (§1) Activity of cefepime in combination with tazobactam and various penicillins in combination with respective ESBL inhibitors was also investigated against highly resistant ESBL strains in quantitative drug diffusion assay performed as per CLSI recommendations (Clinical and Laboratory Standards Institute (CLSI), performance Standards for Antimicrobial Susceptibility Testing, 20th Informational Supplement, M 100-S20, Volume 30, No. 1, 2010).
(§2) In a typical study, overnight grown bacterial cultures after appropriate dilution were seed inoculated in the molten, cooled agar media and plates poured. Antibiotics containing 6 mm diameter discs were place on the top of the agar surface. Zone of inhibition based observation was performed after 16-18 h of incubation at 35±2° C. in ambient air. The overall procedure was performed as per CLSI recommendations (Table 5 and 6). These assays are routinely used in determining possibility of treating a particular infection using antibiotic and/or their combinations. For example, in case of treating an infection caused by E. coli (M138) using Augmentin® [commercially available combination: Amoxicillin (500 mg)+Clavulanic acid (125 mg)], the zone inhibition values need to be in the sensitive (S) range.

E. coli M-138 = assay: as above; parameters: key to Interpretation of zone as per CLSI recommendations: R: Resistant; I: Intermediate; S: Sensitive (Interpretation as per CLSI recommendations, 2010)
Excerpt: as §1, §2

E. coli B-123 = assay: as above; parameters: key to Interpretation of zone as per CLSI recommendations: R: Resistant; I: Intermediate; S: Sensitive (Interpretation as per CLSI recommendations, 2010)
Excerpt: as §1, §2

E. coli M50 [1] = assay: as above; parameters: key to Interpretation of zone as per CLSI recommendations: R: Resistant; I: Intermediate; S: Sensitive (Interpretation as per CLSI recommendations, 2010)
Excerpt: as §1, §2

E. coli B-89 [2] = assay: as above; parameters: key to Interpretation of zone as per CLSI recommendations: R: Resistant; I: Intermediate; S: Sensitive (Interpretation as per CLSI recommendations, 2010)
Excerpt: as §1, §2

E. coli 7MP [3] = assay: as above; parameters: key to Interpretation of zone as per CLSI recommendations: R: Resistant; I: Intermediate; S: Sensitive (Interpretation as per CLSI recommendations, 2010)
Excerpt: as §1, §2

E. cloacae M-20 = assay: MIC by agar dilution (CLSI) against highly resistant ESBL strain
Method: (§3) The results on activity of cefepime and other cephalosporin antibacterial agents in combination with tazobactam against highly resistant ESBL strains are given Table 1. In a typical study, overnight grown bacterial cultures were diluted appropriately and inoculated on the agar media containing doubling dilutions of the antibiotic. Observation for growth or no growth was performed after 16-20 h of incubation at 35±2° C. in ambient air. The overall procedure was performed as per Clinical and Laboratory Standards Institute (CLSI) recommendations. This experimental was followed for Examples 2-4 and 6 below (Table 2-4 and 7).

E. coli M50 [4] = assay: as above
Method: as §3

E. coli B-89 [5] = assay: as above
Method: as §3

K. pneumoniae M150 = assay: as above; settings: Klebsiella pneumoniae
Method: as §3

E. coli 7MP [6] = assay: as above
Method: as §3

[7] = ESBL inhibitor 0 mcg (antibiotic alone)
[8] = Table 5, with Clavulanic acid 10 mcg
[9] = Table 6, with Clavulanic acid 10 mcg

## CC1(C)S[C@@H]2[C@H](NC(=O)[C@H](N)c3ccc(O)cc3)C(=O)N2[C@H]1C(=O)O [Amoxicillin]
E. coli S-112; [7]
  Zone of Inhibition: Nil
E. coli S-112; Table 5, ESBL inhibitor 0 mcg
  Interpretation of zone as per CLSI recommendations: (R)
E. coli S-112; [8]
  Interpretation of zone as per CLSI recommendations: (R)
E. coli S-112; Table 6, ESBL inhibitor 0 mcg
  Interpretation of zone as per CLSI recommendations: (R)
E. coli S-112; [9]
  Interpretation of zone as per CLSI recommendations: (R)
E. coli S-112; with Clavulanic acid 10 mcg
  Zone of Inhibition: Nil
E. coli M-138; [7]
  Zone of Inhibition: Nil
E. coli M-138; Table 5, ESBL inhibitor 0 mcg
  Interpretation of zone as per CLSI recommendations: (R)
E. coli M-138; [8]
  Interpretation of zone as per CLSI recommendations: (R)
E. coli M-138; Table 6, ESBL inhibitor 0 mcg
  Interpretation of zone as per CLSI recommendations: (R)
E. coli M-138; [9]
  Interpretation of zone as per CLSI recommendations: (R)
E. coli M-138; with Clavulanic acid 10 mcg
  Zone of Inhibition: Nil
E. coli B-123; [7]
  Zone of Inhibition: Nil
E. coli B-123; Table 5, ESBL inhibitor 0 mcg
  Interpretation of zone as per CLSI recommendations: (R)
E. coli B-123; [8]
  Interpretation of zone as per CLSI recommendations: (R)
E. coli B-123; Table 6, ESBL inhibitor 0 mcg
  Interpretation of zone as per CLSI recommendations: (R)
E. coli B-123; [9]
  Interpretation of zone as per CLSI recommendations: (R)
E. coli B-123; with Clavulanic acid 10 mcg
  Zone of Inhibition: Nil
E. coli M50 [1]; [7]
  Zone of Inhibition: Nil
E. coli M50 [1]; Table 5, ESBL inhibitor 0 mcg
  Interpretation of zone as per CLSI recommendations: (R)
E. coli M50 [1]; [8]
  Interpretation of zone as per CLSI recommendations: (R)
E. coli M50 [1]; Table 6, ESBL inhibitor 0 mcg
  Interpretation of zone as per CLSI recommendations: (R)
E. coli M50 [1]; [9]
  Interpretation of zone as per CLSI recommendations: (R)
E. coli M50 [1]; with Clavulanic acid 10 mcg
  Zone of Inhibition: Nil
E. coli B-89 [2]; [7]
  Zone of Inhibition: Nil
E. coli B-89 [2]; Table 5, ESBL inhibitor 0 mcg
  Interpretation of zone as per CLSI recommendations: (R)
E. coli B-89 [2]; [8]
  Interpretation of zone as per CLSI recommendations: (R)
E. coli B-89 [2]; Table 6, ESBL inhibitor 0 mcg
  Interpretation of zone as per CLSI recommendations: (R)
E. coli B-89 [2]; [9]
  Interpretation of zone as per CLSI recommendations: (R)
E. coli B-89 [2]; with Clavulanic acid 10 mcg
  Zone of Inhibition: Nil
E. coli 7MP [3]; [7]
  Zone of Inhibition: Nil
E. coli 7MP [3]; Table 5, ESBL inhibitor 0 mcg
  Interpretation of zone as per CLSI recommendations: (R)
E. coli 7MP [3]; [8]
  Interpretation of zone as per CLSI recommendations: (R)
E. coli 7MP [3]; Table 6, ESBL inhibitor 0 mcg
  Interpretation of zone as per CLSI recommendations: (R)
E. coli 7MP [3]; [9]
  Interpretation of zone as per CLSI recommendations: (R)
E. coli 7MP [3]; with Clavulanic acid 10 mcg
  Zone of Inhibition: Nil
E. cloacae M-20; E. cloacae M-20, with Tazobactam 4 mcg
  MIC: >64 µg/mL
E. cloacae M-20; E. cloacae M-20, with Tazobactam 8 mcg
  MIC: >64 µg/mL
E. cloacae M-20; Enterobacter cloacae, M20, 20 h
  MIC: > 128 µg/mL
E. coli M50 [4]; Escherichia coli, M50, 20 h, Tazobactam 0 mcg (antibiotic alone)
  MIC: > 128 µg/mL
E. coli M50 [4]; with Tazobactam 4 mcg
  MIC: >64 µg/mL
E. coli M50 [4]; with Tazobactam 8 mcg
  MIC: >64 µg/mL
E. coli B-89 [5]; E. coli B-89, with Tazobactam 4 mcg
  MIC: >64 µg/mL
E. coli B-89 [5]; E. coli B-89, with Tazobactam 8 mcg
  MIC: >64 µg/mL
E. coli B-89 [5]; Escherichia coli, B89, 20 h
  MIC: > 128 µg/mL
K. pneumoniae M150; M150
  MIC: > 128 µg/mL
K. pneumoniae M150; M150, K. pneumoniae M150, with Tazobactam 4 mcg, read-out: MIC
  MIC: > 64 µg/mL
K. pneumoniae M150; M150, K. pneumoniae M150, with Tazobactam 8 mcg, read-out: MIC
  MIC: > 64 µg/mL
E. coli 7MP [6]; E. coli 7MP, with Tazobactam 4 mcg
  MIC: >64 µg/mL
E. coli 7MP [6]; E. coli 7MP, with Tazobactam 8 mcg
  MIC: >64 µg/mL
E. coli 7MP [6]; Escherichia coli, 7MP, 20 h
  MIC: > 128 µg/mL
